Columns and labels:
[1] = target: T1, Sodium-dependent dopamine transporter (Rattus norvegicus, UniProt P23977); assay: Inhibitory constant towards reuptake of [125I]-12 from dopamine transporter in rat striatal membranes; assay type: cell membranes, Membrane
[2] = target: T1, Sodium-dependent dopamine transporter; assay: Inhibitory constant towards reuptake of [125I]-13 from dopamine transporter in rat striatal membranes; assay type: cell membranes, Membrane
Rattus norvegicus [3] = assay: Distribution of radio activity in tissues of unfasted male rats was measured as regional uptake at 120 min of time in ST/CB after intravenous administration; assay type: ADME, organism-based; details: in vivo, 2 h
Rattus norvegicus [4] = assay: Distribution of radio activity in tissues of unfasted male rats was measured as regional uptake at 120 min of time in cerebellum after intravenous administration; assay type: ADME, organism-based; details: in vivo, 2 h
Rattus norvegicus [5] = assay: Distribution of radio activity in tissues of unfasted male rats was measured as at 2 min of time in lung after intravenous administration; assay type: ADME, organism-based; details: in vivo
Rattus norvegicus [6] = assay: Distribution of radio activity in tissues of unfasted male rats was measured at 120 min of time in blood after intravenous administration; assay type: ADME, organism-based; details: in vivo, 2 h
Rattus norvegicus [7] = assay: Distribution of radio activity in tissues of unfasted male rats was measured at 120 min of time in brain after intravenous administration; assay type: ADME, organism-based; details: in vivo, 2 h
Rattus norvegicus [8] = assay: Distribution of radio activity in tissues of unfasted male rats was measured at 120 min of time in heart after intravenous administration; assay type: ADME, organism-based; details: in vivo, 2 h
Rattus norvegicus [9] = assay: Distribution of radio activity in tissues of unfasted male rats was measured at 120 min of time in kidney after intravenous administration; assay type: ADME, organism-based; details: in vivo, 2 h
Rattus norvegicus [10] = assay: Distribution of radio activity in tissues of unfasted male rats was measured at 120 min of time in liver after intravenous administration; assay type: ADME, organism-based; details: in vivo, 2 h
Rattus norvegicus [11] = assay: Distribution of radio activity in tissues of unfasted male rats was measured at 120 min of time in lung after intravenous administration; assay type: ADME, organism-based; details: in vivo, 2 h
Rattus norvegicus [12] = assay: Distribution of radio activity in tissues of unfasted male rats was measured at 120 min of time in muscle after intravenous administration; assay type: ADME, organism-based, Muscle tissue; details: in vivo, 2 h
Rattus norvegicus [13] = assay: Distribution of radio activity in tissues of unfasted male rats was measured at 120 min of time in skin after intravenous administration; assay type: ADME, organism-based; details: in vivo, 2 h
Rattus norvegicus [14] = assay: Distribution of radio activity in tissues of unfasted male rats was measured at 120 min of time in spleen after intravenous administration; assay type: ADME, organism-based; details: in vivo, 2 h
Rattus norvegicus [15] = assay: Distribution of radio activity in tissues of unfasted male rats was measured at 120 min of time in thyroid after intravenous administration; assay type: ADME, organism-based, Thyroid gland; details: in vivo, 2 h
Rattus norvegicus [16] = assay: Distribution of radio activity in tissues of unfasted male rats was measured at 2 min of time in blood after intravenous administration; assay type: ADME, organism-based; details: in vivo
Rattus norvegicus [17] = assay: Distribution of radio activity in tissues of unfasted male rats was measured at 2 min of time in brain after intravenous administration; assay type: ADME, organism-based; details: in vivo
Rattus norvegicus [18] = assay: Distribution of radio activity in tissues of unfasted male rats was measured at 2 min of time in heart after intravenous administration; assay type: ADME, organism-based; details: in vivo
Rattus norvegicus [19] = assay: Distribution of radio activity in tissues of unfasted male rats was measured at 2 min of time in kidney after intravenous administration; assay type: ADME, organism-based; details: in vivo
Rattus norvegicus [20] = assay: Distribution of radio activity in tissues of unfasted male rats was measured at 2 min of time in muscle after intravenous administration; assay type: ADME, organism-based, Muscle tissue; details: in vivo
Rattus norvegicus [21] = assay: Distribution of radio activity in tissues of unfasted male rats was measured at 2 min of time in skin after intravenous administration; assay type: ADME, organism-based; details: in vivo
Rattus norvegicus [22] = assay: Distribution of radio activity in tissues of unfasted male rats was measured as regional uptake at 60 min of time in cortex after intravenous administration; assay type: ADME, organism-based; details: in vivo, 1 h
Rattus norvegicus [23] = assay: Distribution of radio activity in tissues of unfasted male rats was measured as regional uptake at 60 min of time in hippocampus after intravenous administration; assay type: ADME, organism-based; details: in vivo, 1 h
Rattus norvegicus [24] = assay: Distribution of radio activity in tissues of unfasted male rats was measured as regional uptake at 60 min of time in striatum after intravenous administration; assay type: ADME, organism-based; details: in vivo, 1 h
Rattus norvegicus [25] = assay: Distribution of radio activity in tissues of unfasted male rats was measured at 30 min of time in lung after intravenous administration; assay type: ADME, organism-based; details: in vivo, 0.5 h
Rattus norvegicus [26] = assay: Distribution of radio activity in tissues of unfasted male rats was measured at 30 min of time in muscle after intravenous administration; assay type: ADME, organism-based, Muscle tissue; details: in vivo, 0.5 h
Rattus norvegicus [27] = assay: Distribution of radio activity in tissues of unfasted male rats was measured at 30 min of time in skin after intravenous administration; assay type: ADME, organism-based; details: in vivo, 0.5 h
Rattus norvegicus [28] = assay: Distribution of radio activity in tissues of unfasted male rats was measured at 30 min of time in kidney after intravenous administration; assay type: ADME, organism-based; details: in vivo, 0.5 h
Rattus norvegicus [29] = assay: Distribution of radio activity in tissues of unfasted male rats was measured at 30 min of time in liver after intravenous administration; assay type: ADME, organism-based; details: in vivo, 0.5 h
Rattus norvegicus [30] = assay: Distribution of radio activity in tissues of unfasted male rats was measured at 30 min of time in spleen after intravenous administration; assay type: ADME, organism-based; details: in vivo, 0.5 h
Rattus norvegicus [31] = assay: Distribution of radio activity in tissues of unfasted male rats was measured at 30 min of time in thyroid after intravenous administration; assay type: ADME, organism-based, Thyroid gland; details: in vivo, 0.5 h

T1 sequence (P23977 whole entry): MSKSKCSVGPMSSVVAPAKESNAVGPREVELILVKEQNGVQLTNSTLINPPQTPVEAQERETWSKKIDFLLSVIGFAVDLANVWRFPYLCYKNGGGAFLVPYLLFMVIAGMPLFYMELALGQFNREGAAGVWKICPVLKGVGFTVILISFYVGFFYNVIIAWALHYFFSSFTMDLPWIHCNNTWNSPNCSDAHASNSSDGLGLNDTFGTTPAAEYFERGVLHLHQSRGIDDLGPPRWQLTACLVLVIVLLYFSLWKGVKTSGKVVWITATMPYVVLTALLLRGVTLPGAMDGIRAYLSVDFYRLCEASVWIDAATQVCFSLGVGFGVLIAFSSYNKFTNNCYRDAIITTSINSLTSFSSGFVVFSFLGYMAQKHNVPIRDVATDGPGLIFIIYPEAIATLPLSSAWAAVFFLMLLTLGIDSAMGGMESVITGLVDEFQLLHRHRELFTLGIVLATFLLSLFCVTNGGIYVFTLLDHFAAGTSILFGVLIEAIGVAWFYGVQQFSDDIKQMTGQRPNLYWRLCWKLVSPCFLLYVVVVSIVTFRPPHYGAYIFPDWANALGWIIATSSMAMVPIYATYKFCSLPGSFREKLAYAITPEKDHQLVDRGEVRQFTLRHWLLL

Structure (SMILES): COC(=O)C1C(c2ccc(Cl)cc2)CC2CCC1N2C/C=C/I (stereo unspecified)
- Ki [1]: 0.69 nM
- Ki [2]: 3.2 nM
- Dose/g (Rattus norvegicus [3]): 16.5%
- Dose/g (Rattus norvegicus [4]): 0.037%
- Injected dose/organ (Rattus norvegicus [5]): 1.19%
- Injected dose/organ (Rattus norvegicus [6]): 4.77%
- Injected dose/organ (Rattus norvegicus [7]): 0.13%
- Injected dose/organ (Rattus norvegicus [8]): 0.11%
- Injected dose/organ (Rattus norvegicus [9]): 0.46%
- Injected dose/organ (Rattus norvegicus [10]): 1.44%
- Injected dose/organ (Rattus norvegicus [11]): 0.31%
- Injected dose/organ (Rattus norvegicus [12]): 9.04%
- Injected dose/organ (Rattus norvegicus [13]): 20%
- Injected dose/organ (Rattus norvegicus [14]): 0.09%
- Injected dose/organ (Rattus norvegicus [15]): 1.06%
- Injected dose/organ (Rattus norvegicus [16]): 2.98%
- Injected dose/organ (Rattus norvegicus [17]): 1.62%
- Injected dose/organ (Rattus norvegicus [18]): 1.05%
- Injected dose/organ (Rattus norvegicus [19]): 3.11%
- Injected dose/organ (Rattus norvegicus [20]): 28.27%
- Injected dose/organ (Rattus norvegicus [21]): 5.14%
- Dose/g (Rattus norvegicus [22]): 0.08%
- Dose/g (Rattus norvegicus [23]): 0.095%
- Dose/g (Rattus norvegicus [24]): 1.23%
- Injected dose/organ (Rattus norvegicus [25]): 0.91%
- Injected dose/organ (Rattus norvegicus [26]): 18.54%
- Injected dose/organ (Rattus norvegicus [27]): 23.76%
- Injected dose/organ (Rattus norvegicus [28]): 0.86%
- Injected dose/organ (Rattus norvegicus [29]): 3.72%
- Injected dose/organ (Rattus norvegicus [30]): 0.23%
- Injected dose/organ (Rattus norvegicus [31]): 0.76%

Source: ChEMBL document CHEMBL1127517 (J Med Chem, 1994)
